Drawing on ChEMBL document CHEMBL5291721, “A preclinical secondary pharmacology resource illuminates target-adverse drug reaction associations of marketed drugs” (Nat Commun, 2023), this text covers AC50 for nine compounds.

Each structure is given as a SMILES string. Where only a bound is given, the exact number is not on record here.

Test [1] has as its target Mu-type opioid receptor (Homo sapiens, UniProt P35372).
In test [2] the target is Prothrombin (Homo sapiens, UniProt P00734). In kind it is functional.
For test [3], the target named is T1, Thromboxane A2 receptor (Homo sapiens, UniProt P21731).
T1 sequence (P21731 whole entry): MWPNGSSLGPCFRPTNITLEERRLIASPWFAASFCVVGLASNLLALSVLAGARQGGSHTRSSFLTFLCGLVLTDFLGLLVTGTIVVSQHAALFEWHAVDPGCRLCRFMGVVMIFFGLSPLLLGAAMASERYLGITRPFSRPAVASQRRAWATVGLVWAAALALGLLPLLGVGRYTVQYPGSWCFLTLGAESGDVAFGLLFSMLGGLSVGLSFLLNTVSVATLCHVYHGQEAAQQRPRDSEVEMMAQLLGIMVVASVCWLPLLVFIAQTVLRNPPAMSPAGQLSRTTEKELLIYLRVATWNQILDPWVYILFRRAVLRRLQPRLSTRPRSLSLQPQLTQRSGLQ
Format: functional, cell-based.

The target of test [4] is T2, Adenosine receptor A3 (Homo sapiens, UniProt P0DMS8).
T2 sequence (P0DMS8 whole entry): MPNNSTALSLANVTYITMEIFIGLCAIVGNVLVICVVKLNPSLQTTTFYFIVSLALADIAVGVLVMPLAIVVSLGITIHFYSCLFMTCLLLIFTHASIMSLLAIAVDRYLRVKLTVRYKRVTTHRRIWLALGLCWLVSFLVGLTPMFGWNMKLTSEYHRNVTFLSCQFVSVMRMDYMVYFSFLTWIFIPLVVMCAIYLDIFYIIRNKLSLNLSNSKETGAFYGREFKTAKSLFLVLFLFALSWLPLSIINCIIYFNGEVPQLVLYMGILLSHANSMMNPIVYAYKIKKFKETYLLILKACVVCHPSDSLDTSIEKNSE

For test [5], the target named is Acetylcholinesterase (Homo sapiens, UniProt P22303). In kind it is functional.
Chain of Acetylcholinesterase (P22303 whole entry): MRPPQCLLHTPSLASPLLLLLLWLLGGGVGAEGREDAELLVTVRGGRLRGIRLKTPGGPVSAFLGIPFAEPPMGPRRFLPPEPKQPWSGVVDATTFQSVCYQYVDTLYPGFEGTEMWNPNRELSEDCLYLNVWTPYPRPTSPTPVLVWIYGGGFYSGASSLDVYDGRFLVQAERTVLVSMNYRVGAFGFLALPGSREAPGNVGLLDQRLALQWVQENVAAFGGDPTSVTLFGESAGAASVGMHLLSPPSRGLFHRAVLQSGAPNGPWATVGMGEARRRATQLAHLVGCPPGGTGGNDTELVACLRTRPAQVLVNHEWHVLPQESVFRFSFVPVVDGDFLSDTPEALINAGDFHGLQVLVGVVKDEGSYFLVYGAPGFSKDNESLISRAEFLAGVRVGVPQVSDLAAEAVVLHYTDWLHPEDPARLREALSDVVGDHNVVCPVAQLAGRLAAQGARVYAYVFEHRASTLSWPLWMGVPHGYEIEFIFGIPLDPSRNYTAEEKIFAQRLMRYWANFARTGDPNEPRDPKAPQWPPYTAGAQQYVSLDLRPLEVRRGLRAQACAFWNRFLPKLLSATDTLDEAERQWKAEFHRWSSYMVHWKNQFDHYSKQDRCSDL
The target of test [6] is T3, Alpha-1A adrenergic receptor (Homo sapiens, UniProt P35348).
T3 sequence (P35348 whole entry): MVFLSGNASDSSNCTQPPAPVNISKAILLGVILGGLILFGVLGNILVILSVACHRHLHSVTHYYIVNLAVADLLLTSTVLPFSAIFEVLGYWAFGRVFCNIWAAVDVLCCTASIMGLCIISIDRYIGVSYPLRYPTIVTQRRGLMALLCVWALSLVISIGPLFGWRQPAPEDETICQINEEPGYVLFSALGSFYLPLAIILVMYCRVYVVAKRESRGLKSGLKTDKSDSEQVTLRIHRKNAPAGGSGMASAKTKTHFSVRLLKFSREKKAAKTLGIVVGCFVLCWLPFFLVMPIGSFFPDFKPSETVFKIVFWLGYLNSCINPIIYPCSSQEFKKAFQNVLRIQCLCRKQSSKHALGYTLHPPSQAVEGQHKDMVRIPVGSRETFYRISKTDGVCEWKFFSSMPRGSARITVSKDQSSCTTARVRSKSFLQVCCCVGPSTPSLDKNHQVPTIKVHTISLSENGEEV
Format: functional, cell-based.

Test [7] concerns the target 5-hydroxytryptamine receptor 2B (Homo sapiens, UniProt P41595). In kind it is functional, cell-based.
Test [8] addresses Voltage-gated inwardly rectifying potassium channel KCNH2 (Homo sapiens, UniProt Q12809). In kind it is functional. To be noted: read-out: AC50.
Test [9] concerns the target Prostaglandin G/H synthase 1 (Homo sapiens, UniProt P23219). Format: functional.
Test [10] concerns the target Sodium-dependent noradrenaline transporter (Homo sapiens, UniProt P23975).
The target of test [11] is Sodium-dependent serotonin transporter (Homo sapiens, UniProt P31645).
Test [12] concerns the target Sodium-dependent dopamine transporter (Homo sapiens, UniProt Q01959).
Test [13] has as its target T4, Amine oxidase [flavin-containing] A (Homo sapiens, UniProt P21397).
T4 sequence (P21397 whole entry): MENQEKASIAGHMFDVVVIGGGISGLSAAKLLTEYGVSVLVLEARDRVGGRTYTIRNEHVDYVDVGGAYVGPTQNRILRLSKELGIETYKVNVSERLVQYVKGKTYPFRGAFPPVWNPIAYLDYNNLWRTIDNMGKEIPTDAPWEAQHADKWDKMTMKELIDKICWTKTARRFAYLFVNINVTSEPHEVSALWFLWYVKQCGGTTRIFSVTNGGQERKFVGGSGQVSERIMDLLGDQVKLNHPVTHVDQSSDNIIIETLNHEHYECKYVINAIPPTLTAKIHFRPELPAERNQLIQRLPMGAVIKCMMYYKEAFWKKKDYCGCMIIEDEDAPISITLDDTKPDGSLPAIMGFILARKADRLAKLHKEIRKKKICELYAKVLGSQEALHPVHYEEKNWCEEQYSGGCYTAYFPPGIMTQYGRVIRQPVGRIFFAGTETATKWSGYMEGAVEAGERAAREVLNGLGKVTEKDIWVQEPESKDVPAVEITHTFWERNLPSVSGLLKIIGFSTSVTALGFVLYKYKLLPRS
Format: functional.

The target in test [14] is T1, Thromboxane A2 receptor. Format: functional, cell-based. This is another data set of the same source.
Test [15] concerns the target D(1A) dopamine receptor (Homo sapiens, UniProt P21728).
Test [16] addresses 3',5'-cyclic-AMP phosphodiesterase 4A (Homo sapiens, UniProt P27815). Format: functional.
Further: assay procedure not described here.

Chain of 5-hydroxytryptamine receptor 2B (P41595 whole entry): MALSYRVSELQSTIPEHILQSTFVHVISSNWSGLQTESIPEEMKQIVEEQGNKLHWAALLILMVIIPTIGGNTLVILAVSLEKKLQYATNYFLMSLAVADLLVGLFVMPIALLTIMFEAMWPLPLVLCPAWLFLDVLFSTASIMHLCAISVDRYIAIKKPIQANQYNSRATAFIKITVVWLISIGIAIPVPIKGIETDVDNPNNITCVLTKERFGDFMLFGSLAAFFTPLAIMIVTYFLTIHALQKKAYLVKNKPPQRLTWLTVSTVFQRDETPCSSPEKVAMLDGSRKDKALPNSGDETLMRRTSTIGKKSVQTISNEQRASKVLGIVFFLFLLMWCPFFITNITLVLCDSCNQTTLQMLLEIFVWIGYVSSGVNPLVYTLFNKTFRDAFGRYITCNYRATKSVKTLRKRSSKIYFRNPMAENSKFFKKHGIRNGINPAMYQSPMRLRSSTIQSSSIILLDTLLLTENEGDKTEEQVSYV
Chain of Prostaglandin G/H synthase 1 (P23219 whole entry): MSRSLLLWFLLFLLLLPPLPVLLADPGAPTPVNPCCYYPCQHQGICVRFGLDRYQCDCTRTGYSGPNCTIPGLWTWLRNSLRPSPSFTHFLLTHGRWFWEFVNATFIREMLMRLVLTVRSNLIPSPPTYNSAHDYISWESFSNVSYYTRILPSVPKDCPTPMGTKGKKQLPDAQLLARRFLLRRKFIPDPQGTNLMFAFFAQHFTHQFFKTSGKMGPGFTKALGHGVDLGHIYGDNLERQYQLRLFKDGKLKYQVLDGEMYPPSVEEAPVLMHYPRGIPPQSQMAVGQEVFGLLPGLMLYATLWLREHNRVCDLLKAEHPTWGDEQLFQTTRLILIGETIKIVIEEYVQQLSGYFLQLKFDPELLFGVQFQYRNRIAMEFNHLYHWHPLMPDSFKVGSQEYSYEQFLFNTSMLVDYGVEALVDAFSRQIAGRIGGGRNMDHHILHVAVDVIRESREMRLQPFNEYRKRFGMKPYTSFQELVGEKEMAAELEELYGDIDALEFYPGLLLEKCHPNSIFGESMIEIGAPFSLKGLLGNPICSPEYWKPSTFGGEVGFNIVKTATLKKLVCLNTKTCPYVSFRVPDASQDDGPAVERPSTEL
Chain of Voltage-gated inwardly rectifying potassium channel KCNH2 (Q12809 whole entry): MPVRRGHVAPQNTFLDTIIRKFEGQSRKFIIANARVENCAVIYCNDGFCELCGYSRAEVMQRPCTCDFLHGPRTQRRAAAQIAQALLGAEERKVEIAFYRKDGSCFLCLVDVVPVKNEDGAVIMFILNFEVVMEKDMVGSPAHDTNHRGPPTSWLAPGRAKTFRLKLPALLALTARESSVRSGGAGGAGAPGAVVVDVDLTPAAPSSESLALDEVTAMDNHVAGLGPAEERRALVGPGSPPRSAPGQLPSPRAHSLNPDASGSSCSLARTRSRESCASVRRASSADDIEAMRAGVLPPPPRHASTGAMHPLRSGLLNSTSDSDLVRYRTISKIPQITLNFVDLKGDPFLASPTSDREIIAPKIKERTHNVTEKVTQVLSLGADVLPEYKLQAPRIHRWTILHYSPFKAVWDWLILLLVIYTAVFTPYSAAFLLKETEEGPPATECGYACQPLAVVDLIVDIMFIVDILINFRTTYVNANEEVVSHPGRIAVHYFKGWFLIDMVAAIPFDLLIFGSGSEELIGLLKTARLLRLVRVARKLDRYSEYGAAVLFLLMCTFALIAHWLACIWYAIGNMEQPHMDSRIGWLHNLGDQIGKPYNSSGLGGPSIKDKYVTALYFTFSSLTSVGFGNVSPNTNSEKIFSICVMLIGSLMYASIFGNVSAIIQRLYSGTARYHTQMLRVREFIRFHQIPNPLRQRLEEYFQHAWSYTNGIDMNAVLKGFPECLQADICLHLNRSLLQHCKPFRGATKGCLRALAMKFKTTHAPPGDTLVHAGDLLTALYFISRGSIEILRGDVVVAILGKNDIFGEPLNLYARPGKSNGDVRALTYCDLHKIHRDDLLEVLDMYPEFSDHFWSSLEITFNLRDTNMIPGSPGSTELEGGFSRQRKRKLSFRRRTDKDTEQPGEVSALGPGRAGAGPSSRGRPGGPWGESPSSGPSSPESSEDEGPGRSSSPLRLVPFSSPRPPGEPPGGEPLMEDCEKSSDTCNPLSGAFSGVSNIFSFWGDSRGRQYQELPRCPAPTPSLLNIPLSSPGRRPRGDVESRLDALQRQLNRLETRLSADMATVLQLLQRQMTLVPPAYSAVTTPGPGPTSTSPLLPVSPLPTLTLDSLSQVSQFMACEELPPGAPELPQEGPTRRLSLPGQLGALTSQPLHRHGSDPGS
Chain of D(1A) dopamine receptor (P21728 whole entry): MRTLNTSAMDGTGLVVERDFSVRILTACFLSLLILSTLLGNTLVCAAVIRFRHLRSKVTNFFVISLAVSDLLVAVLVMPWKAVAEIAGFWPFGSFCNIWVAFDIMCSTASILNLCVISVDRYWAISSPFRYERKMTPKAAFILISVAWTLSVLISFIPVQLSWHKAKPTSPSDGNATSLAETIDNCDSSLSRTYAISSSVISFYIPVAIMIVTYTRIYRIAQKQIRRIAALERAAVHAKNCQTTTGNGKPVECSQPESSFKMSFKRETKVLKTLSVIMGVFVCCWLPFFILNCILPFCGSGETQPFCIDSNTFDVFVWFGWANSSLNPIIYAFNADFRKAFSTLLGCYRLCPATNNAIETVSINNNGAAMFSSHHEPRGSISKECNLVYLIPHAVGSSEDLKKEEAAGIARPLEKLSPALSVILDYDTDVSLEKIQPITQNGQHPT
Chain of Sodium-dependent noradrenaline transporter (P23975 whole entry): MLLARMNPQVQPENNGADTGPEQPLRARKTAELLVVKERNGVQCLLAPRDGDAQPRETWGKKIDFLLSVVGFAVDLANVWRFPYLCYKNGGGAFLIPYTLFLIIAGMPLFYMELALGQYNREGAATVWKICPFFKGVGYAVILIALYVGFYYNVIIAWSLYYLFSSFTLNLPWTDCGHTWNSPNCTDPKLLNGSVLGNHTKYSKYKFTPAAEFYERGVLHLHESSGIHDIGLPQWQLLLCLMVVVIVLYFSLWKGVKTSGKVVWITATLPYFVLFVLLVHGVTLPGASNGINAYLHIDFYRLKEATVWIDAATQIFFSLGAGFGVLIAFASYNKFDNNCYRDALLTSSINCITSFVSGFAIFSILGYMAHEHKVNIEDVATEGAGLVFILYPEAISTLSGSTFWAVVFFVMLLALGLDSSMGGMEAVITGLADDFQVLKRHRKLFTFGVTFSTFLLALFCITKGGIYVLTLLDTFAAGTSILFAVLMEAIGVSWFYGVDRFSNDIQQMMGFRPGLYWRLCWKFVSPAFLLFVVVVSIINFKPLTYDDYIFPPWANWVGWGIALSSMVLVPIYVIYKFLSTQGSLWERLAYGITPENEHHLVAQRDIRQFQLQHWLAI
Chain of Mu-type opioid receptor (P35372 whole entry): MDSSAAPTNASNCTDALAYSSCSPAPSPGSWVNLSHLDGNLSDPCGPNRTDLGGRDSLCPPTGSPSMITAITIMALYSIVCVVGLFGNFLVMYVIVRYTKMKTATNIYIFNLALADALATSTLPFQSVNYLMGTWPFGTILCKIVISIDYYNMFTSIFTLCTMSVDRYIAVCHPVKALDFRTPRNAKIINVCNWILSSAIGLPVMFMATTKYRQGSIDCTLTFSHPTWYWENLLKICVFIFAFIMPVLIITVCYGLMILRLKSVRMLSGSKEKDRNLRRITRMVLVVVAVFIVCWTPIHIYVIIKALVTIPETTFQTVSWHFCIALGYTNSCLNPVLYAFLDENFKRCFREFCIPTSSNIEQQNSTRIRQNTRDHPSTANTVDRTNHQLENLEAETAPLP
Chain of Sodium-dependent dopamine transporter (Q01959 whole entry): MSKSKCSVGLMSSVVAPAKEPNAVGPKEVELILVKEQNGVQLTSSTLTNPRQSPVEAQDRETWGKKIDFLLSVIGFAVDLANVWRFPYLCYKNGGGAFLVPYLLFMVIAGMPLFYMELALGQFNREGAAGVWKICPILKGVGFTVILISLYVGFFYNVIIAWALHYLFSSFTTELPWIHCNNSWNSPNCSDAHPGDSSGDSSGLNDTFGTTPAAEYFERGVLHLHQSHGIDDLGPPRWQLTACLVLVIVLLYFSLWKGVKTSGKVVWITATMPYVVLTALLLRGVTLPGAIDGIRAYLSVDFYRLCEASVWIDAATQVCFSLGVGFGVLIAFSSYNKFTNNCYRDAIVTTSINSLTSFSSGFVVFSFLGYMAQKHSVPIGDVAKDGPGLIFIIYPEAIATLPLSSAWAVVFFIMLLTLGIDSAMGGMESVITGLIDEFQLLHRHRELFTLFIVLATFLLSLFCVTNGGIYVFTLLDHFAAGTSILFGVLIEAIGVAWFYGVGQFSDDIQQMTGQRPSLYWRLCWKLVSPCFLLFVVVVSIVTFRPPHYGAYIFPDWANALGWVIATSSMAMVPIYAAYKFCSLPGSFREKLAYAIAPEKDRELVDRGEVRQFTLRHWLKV

For `CC/C=C\C/C=C\C/C=C\C/C=C\C/C=C\CCCC(=O)O` [ICOSAPENT], the AC50 – broadly, the concentration giving half of the maximal activity seen – in test [1] is over 30 µM; in test [2], over 30 µM; in test [3] it was over 30 µM; in test [4], 25.3 µM; in test [5], over 30 µM; in test [6], over 30 µM. In addition, the AC50 is over 30 µM in test [7]; over 30 µM in test [8]; 9.84 µM in test [9]; over 30 µM in test [10]; over 30 µM in test [11]; over 30 µM in test [12]. Besides, the AC50 in test [13], in test [14], in [15] and in test [16] was over 30 µM throughout.
As for `CS(=O)(=O)Nc1cc2occ(NC=O)c(=O)c2cc1Oc1ccccc1` [IGURATIMOD], the AC50 in test [1] is over 30 µM; in test [2], over 30 µM; in [3] it was over 30 µM; in test [4], 1.44 µM; in test [5], over 30 µM; in [6], over 30 µM. The AC50 is over 30 µM in [7]; over 30 µM in [8]; 4.33 µM in [9]; over 30 µM in test [10]; over 30 µM in test [11]; over 30 µM in test [12]. Also, the AC50 in test [13] is over 30 µM; in [14], over 30 µM; in test [15] it was over 30 µM; in [16], 1.75 µM.
As for `CCC(Cc1c(I)cc(I)c(N)c1I)C(=O)O` (centres undefined) [IOPANOIC ACID], the half-maximal activity concentration (AC50) is over 30 µM in test [1]; over 30 µM in test [2]; over 30 µM in test [3]; over 30 µM in [4]; over 30 µM in test [5]; 24.2 µM in test [6]. Further, the AC50 in test [7], in [8], in test [9], in [10], in test [11] and in test [12] was over 30 µM in each case. Moreover, the half-maximal activity concentration (AC50) in test [13] was over 30 µM; in test [14] it was 14.4 µM; in test [15], over 30 µM; in [16], 12.2 µM.
Turning to `O=C(NC1CCN(CCCCC2(C(=O)NCC(F)(F)F)c3ccccc3-c3ccccc32)CC1)c1ccccc1-c1ccc(C(F)(F)F)cc1` [LOMITAPIDE], the concentration at half-maximal activity (AC50) in [1] is 4.02 µM; in test [2] it was over 30 µM; in test [3], 8.46 µM; in [4], 4.4 µM; in [5], over 30 µM; in test [6], 2.4 µM. The concentration at half-maximal activity (AC50) in test [7] is over 30 µM; in test [8], 0.86 µM; in [9], over 30 µM; in [10] it was 2.2 µM; in test [11], over 30 µM; in [12], 0.239 µM. Besides, the AC50 in [13] was over 30 µM; in test [14] it was over 1 µM; in test [15], 1.49 µM; in [16] it was over 30 µM.
Turning to `C1N2CN3CN1CN(C2)C3` [METHENAMINE], the AC50 in [1], in [2], in [3], in test [4], in test [5] and in test [6] was over 30 µM in each case. Moreover, the AC50 in test [7], in [8], in test [9], in test [10], in test [11] and in test [12] was over 30 µM in each case. For the same compound, the AC50 in [13], in [14], in [15] and in [16] was over 30 µM in each case.
Regarding `CC[C@@H]1/C=C(\C)C[C@H](C)C[C@H](OC)[C@H]2O[C@@](O)(C(=O)C(=O)N3CCCC[C@H]3C(=O)O[C@H](/C(C)=C/[C@@H]3CC[C@H](Cl)[C@H](OC)C3)[C@H](C)[C@@H](O)CC1=O)[C@H](C)C[C@@H]2OC` [PIMECROLIMUS], the concentration at half-maximal activity (AC50) is over 30 µM in test [1]; over 30 µM in test [2]; over 30 µM in test [3]; 5.19 µM in test [4]; over 30 µM in test [5]; over 30 µM in test [6]. For the same compound, the AC50 in test [7], in test [8], in [9], in test [10], in test [11] and in [12] was over 30 µM each time. Besides, the concentration at half-maximal activity (AC50) in [13], in test [14], in test [15] and in test [16] was over 30 µM throughout.
For the compound `CC(C(=O)O)c1ccc2c(c1)Cc1cccnc1O2` (centres undefined) [PRANOPROFEN], the AC50 in [1], in test [2], in [3], in test [4], in [5] and in test [6] was over 30 µM in each case. For the same compound, the AC50 was over 30 µM in test [7]; over 30 µM in [8]; 0.702 µM in [9]; over 30 µM in test [10]; over 10 µM in test [11]; over 30 µM in [12]. Besides, the half-maximal activity concentration (AC50) in test [13], in [14], in test [15] and in test [16] was over 30 µM each time.
With `CN1CCC2=C(C1)c1ccccc1Cc1ccccc12` [SETIPTILINE], the half-maximal activity concentration (AC50) in test [1] was 12.8 µM; in [2], over 30 µM; in [3], over 30 µM; in [4], over 30 µM; in test [5], over 30 µM; in test [6], 0.231 µM. Also, the AC50 in test [7] is over 30 µM; in test [8] it was 13 µM; in [9] it was over 30 µM; in [10], 3.52 µM; in [11], 8.15 µM; in [12] it was 24.1 µM. Further, the AC50 in test [13] was over 30 µM; in [14], over 30 µM; in test [15], 0.0882 µM; in test [16], over 30 µM.
As to `COc1ccc(CCC(C)NCC(O)c2ccc(O)c([S+](C)[O-])c2)cc1` (centres undefined) [SULFINALOL], the half-maximal activity concentration (AC50) in [1] is over 30 µM; in test [2], over 30 µM; in [3], over 30 µM; in test [4], over 30 µM; in test [5], over 30 µM; in [6], 20.3 µM. For the same compound, the half-maximal activity concentration (AC50) in test [7] was over 30 µM; in test [8] it was over 30 µM; in [9] it was over 30 µM; in [10] it was 10.6 µM; in test [11], 0.866 µM; in [12], over 30 µM. Also, the AC50 in test [13], in [14], in [15] and in test [16] was over 30 µM in each case.
